The record followed here is PMC11546786, “Designing Analogs of SAAP-148 with Enhanced Antimicrobial and Anti-LPS Activities” (International Journal of Molecular Sciences, 2024).

Ends that are not written are not given here.

One data set relates to S. aureus. Kind of data set: Membrane damage, PI staining and flow cytometry. In kind it is cell-based, Staphylococcus aureus. The note with it: 6.25 μM peptide, OD600 0.5 in PBS, 37 °C, 30 min, flow cytometry. The method, then: (§1) Propidium iodide (PI) was utilized as a marker for assessing the structural integrity of cell membranes and the occurrence of cell death. The impact of peptides on BEAS-2B cells, E. coli, and S. aureus was investigated by treating the cells with peptides followed by PI staining and flow cytometry (FACS) analysis to evaluate peptide-induced membrane damage. Table 5 presents the results of PI staining in BEAS-2B cells (1 × 10^6) following treatment with peptides at a concentration of 6.25 μM. […] FACS analysis at a peptide concentration of 6.25 μM was employed to determine the membrane damage caused by peptides in E. coli and S. aureus cells (Table 5).
(§2) Peptide-induced membrane damage was evaluated by quantifying the influx of propidium iodide (PI). BEAS-2B cells (1 × 10^6 cells in 50 μL) were exposed to a final concentration of 6.25 μM peptide and incubated at 37 °C for 30 min, followed by PBS washing and re-suspension in PI solution (dissolved in PBS) at a final concentration of 2 μg/mL. Bacteria were cultured to mid-log phase at 37 °C, then diluted to an OD600 of 0.5 in phosphate-buffered saline (PBS). […] The bacteria were harvested and re-suspended in PI solution, with fluorescence signal analysis conducted using flow cytometry (Cytomics FC 500, Beckman Coulter, Indianapolis, IN, USA).

The next data set relates to BEAS-2B cells. Kind of data set: Membrane damage, PI staining and flow cytometry. As to conditions: 6.25 μM peptide, 1 × 10^6 cells, 37 °C, 30 min, flow cytometry. It counts as cell-based. How it is done: as §1, §2
Data set [1] concerns Gram-negative bacteria (E. coli, P. aeruginosa, K. pneumoniae). Kind of data set: Geometric mean of MICs against Gram-negative bacteria. It counts as cell-based. More on the design: unit not given here. How it is done:
(§3) The antibacterial activities of the peptides against […] were evaluated using a modified version of the Clinical Laboratory and Standards Institute (CLSI) broth microdilution method, as previously described. Briefly, the bacteria were cultured in liquid LB medium (comprising 10 g/L tryptone, 5 g/L yeast extract, and 10 g/L NaCl) at 37 °C until reaching mid-log phase. Subsequently, the bacterial concentration was adjusted to 1 × 10^6 colony-forming units (CFU)/mL. The peptides were then diluted serially with phosphate-buffered saline (PBS), followed by the addition of 50 μL of the diluted peptides to 50 μL of the bacterial suspension in a 96-well plate (Corning Inc., Lowell, MA, USA). After incubating at 37 °C for 18 to 20 h, the absorbance of each well was measured using a multi-well microplate reader (SpectraMax M5; Molecular Devices, Sunnyvale, CA, USA) at 600 nm.

The next data set has as its system E. coli. Put plainly: Membrane damage, PI staining and flow cytometry. In kind it is cell-based, Escherichia coli. As to conditions: 6.25 μM peptide, OD600 0.5 in PBS, 37 °C, 30 min, flow cytometry. The method, then:
as §1, §2

Data set [2] is described as follows: Reversed-phase HPLC retention time as measure of peptide hydrophobicity. It counts as physicochemical. The note with it: retention time by reverse-phase HPLC, reflects hydrophobicity difference between analogues. The source says: The physicochemical parameters crucial for the antimicrobial activity of AMPs have been identified, encompassing net charge, helicity, hydrophobicity, and amphipathicity. The hydropathicity, mean relative hydrophobic moment, and charge of peptides were predicted using the HeliQuest (https://heliquest.ipmc.cnrs.fr/ (accessed on 12 March 2024)). Lysine is a hydrophilic amino acid, and its substitution leads to a decrease in the hydrophobicity of the SAAP-148 analogue. The anticipated results are consistent, with the degree of reduction in […] varying depending on the position at which lysine is substituted (Table 2). The amphipathicity of the peptides, as denoted by the μH (mean relative hydrophobic moment), is elaborated on in Table 2. The hydrophobic moment of SAAP-148 analogues was decreased except for SAAP-10, which is on account of the substitution occurring on the18th residue. (Figure 1) The 18th residue of SAAP-148 is glutamine, a polar amino acid residue, located at the junction of the hydrophobic and hydrophilic surfaces of the SAAP-148 α-helix. […] The retention time data determined by reversed-phase high-performance liquid chromatography (RP-HPLC) reflects the hydrophobicity difference between peptide analogues. It is well documented that the formation of a hydrophobic-binding domain due to peptide secondary structure can affect peptide interactions with reversed-phase matrices. This effect was observed particularly for amphipathic α-helical peptides. Given this preferred binding domain, amphipathic α-helical peptides are considerably more retentive than non-amphipathic peptides with the same amino acid composition.
This phenomenon was particularly evident in the case of amphipathic α-helical peptides. […] This discrepancy may be attributed to the lack of a well-defined α-helical structure in SAAP-148 and its analogues (Figure S1).

The subject of a further data set is five bacterial strains. Kind of data set: MICs against all five bacterial strains (geometric mean, range). In kind it is cell-based. More on the design: unit not given here. The note with it: geometric mean of MICs against all five bacterial strains. The method, then: as §3
Data set [3] can be described thus: CD spectra, secondary structure by BeStSel. In kind it is physicochemical. The note with it: 30 μM SDS as printed, 100 μM peptide, 25 °C. The method, then:
CD spectra (Figure S1) were acquired using a JASCO J-1500 spectropolarimeter (JASCO Inc., Easton, MD, USA) in 0.1 cm pathlength cells under nitrogen at 25 °C. The spectra were recorded in the range of 190 to 250 nm at a peptide concentration of 100 μM in SDS. Secondary structure was determined using the BeStSel server. Hydropathicity, mean relative hydrophobic moment, and charge of peptides were predicted using the HeliQuest (https://heliquest.ipmc.cnrs.fr/ (accessed on 12 March 2024)). The 3D structure of SAAP-148 and its analogues (Figure S2) was predicted using PEP-FOLD4 servers (https://bioserv.rpbs.univ-paris-diderot.fr/services/PEP-FOLD4/ (accessed on 19 June 2024)).

Data set [4] relates to Gram-positive bacteria (S. aureus, S. epidermidis). Kind of data set: Geometric mean of MICs against Gram-positive bacteria. It counts as cell-based. More on the design: unit not given here. The method, then:
as §3

The subject of data set [5] is human erythrocytes versus five bacterial strains. Kind of data set: Therapeutic index (MHC/GM of MIC). The note with it: ratio of MHC to geometric mean of MIC (five strains). The method, then: The geometric mean of minimum inhibitory concentration (MIC) values (GM) from the five strains was calculated to provide a comprehensive assessment of antimicrobial activity, as presented in Table 4.
The therapeutic index (TI) is a widely utilized parameter for indicating the specificity of antimicrobial agents, which is determined by the ratio of MHC (hemolytic activity) and MIC (antimicrobial activity). Consequently, larger TI values signify greater antimicrobial specificity. The TI can be enhanced through one of three mechanisms: increasing antimicrobial activity, reducing hemolytic activity while maintaining antimicrobial activity, or a combination of both augmenting antimicrobial activity and diminishing hemolytic activity.

The test system of data set [6] is LPS-induced NO in RAW264.7 macrophages. Kind of data set: Inhibition of LPS-induced NO production, Griess assay. It counts as cell-based, mouse. As to conditions: 6.25 μM peptide, LPS 100 ng/mL, 24 h, Griess assay (Figure 4). From the text: LL-37 is a promising peptide for the regulation of inflammation and mitigation of endotoxin impact due to its ability to directly bind to LPS and counteract its biological effects, such as the inhibition of interleukin-6 (IL-6), interleukin 1β (IL-1β), and LPS-induced nitric oxide (NO). We conducted a series of experiments to assess the effectiveness of SAAP-148 and its analogues in reducing NO production by mouse mononuclear pacrophages cells (RAW264.7) after LPS stimulation. […] Subsequently, we employed a Griess assay to evaluate the levels of nitrite in RAW264.7 cells following treatment with SAAP-148 and its analogues, both with and without LPS treatment.
RAW264.7 cells were cultured in DMEM supplemented with 10% (v/v) FBS, 2 mM L-glutamine, 100 U/mL penicillin, and […] streptomycin, and maintained in a humidified incubator with 5% CO2 at 37 °C. Subsequently, RAW264.7 cells (1.5 × 10^4 cells/well) were seeded in 96-well plates (Corning Inc., Lowell, MA, USA) and incubated overnight. […] After incubation for 24 h, the culture supernatant was collected, and NO assay was performed according the instruction. The absorbance of the sample was measured at 550 nm.

The test system of data set [7] is Klebsiella pneumonia (1.1736). It counts as cell-based, Klebsiella pneumoniae.
Description: (§4) The LL-37, SAAP-148 and its analogues peptides were synthesized according to the standard Fmoc procedure. The Fmoc-protected resin and monomers are first treated with a basic solvent (piperidine) to remove the amino protecting groups. The carboxyl group of the next amino acid is activated by an activator. The activated monomer reacts with the free amino group to form a peptide bond. These two steps are repeated in a cycle until the synthesis is complete. After synthesis, the peptide is eluted from the column and purified by reverse-phase semipreparative high-performance liquid chromatography as detailed in Table 1. The peptides were dissolved in PBS to create a 1000 μmol/L stock solution for subsequent use. The purity of the synthetic peptide exceeded 95%. Blood samples from healthy donors were obtained from the Fifth Medical Center of Chinese PLA General Hospital (Beijing, China). Human normal lung epithelial cells (BEAS-2B) and mouse mononuclear macrophages cells (RAW 264.7) were sourced from Beyotime Biotechnology (Beijing, China), along with the Enhanced Cell Counting Kit-8 (CCK-8) and nitric oxide detection kit. RPMI-1640 and DMEM were procured from Merck (Darmstadt, Germany), while FBS was obtained from ExCell Bio (Shanghai, China). LPS-B5 (from E. coli 055:B5) was procured from Invivogen (Toulouse, France). Five bacterial strains, including Escherichia coli (1.8732), Pseudomonas aeruginosa (1.2421), Klebsiella pneumonia (1.1736) as Gram-negative bacteria, and Staphylococcus aureus (1.8721) and Staphylococcus epidermidis (1.4260) as Gram-positive bacteria, were procured from the China General Microbiological Culture Collection Centre (CGMCC) (Beijing, China).
as §3

For data set [8], the system named is Staphylococcus epidermidis (1.4260). It counts as cell-based.
Description: as §4, §3

The test system of data set [9] is Escherichia coli (1.8732). In kind it is cell-based.
Description: as §4, §3

Data set [10] relates to Staphylococcus aureus (1.8721). In kind it is cell-based.
Description: as §4, §3

Data set [11] has as its system Pseudomonas aeruginosa (1.2421). In kind it is cell-based.
Description: as §4, §3

Take `CC[C@H](C)[C@H](NC(=O)[C@H](CCCCN)NC(=O)[C@H](CCC(=O)O)NC(=O)[C@H](CCCCN)NC(=O)[C@H](CO)NC(=O)[C@H](CCCCN)NC(=O)[C@H](CCCNC(=N)N)NC(=O)[C@H](Cc1ccccc1)NC(=O)[C@H](Cc1ccccc1)NC(=O)[C@H](CC(=O)O)NC(=O)CNC(=O)[C@H](CC(C)C)NC(=O)[C@@H](N)CC(C)C)C(=O)NCC(=O)N[C@@H](CCCCN)C(=O)N[C@@H](CCC(=O)O)C(=O)N[C@@H](Cc1ccccc1)C(=O)N[C@@H](CCCCN)C(=O)N[C@@H](CCCNC(=N)N)C(=O)N[C@H](C(=O)N[C@H](C(=O)N[C@@H](CCC(N)=O)C(=O)N[C@@H](CCCNC(=N)N)C(=O)N[C@H](C(=O)N[C@@H](CCCCN)C(=O)N[C@@H](CC(=O)O)C(=O)N[C@@H](Cc1ccccc1)C(=O)N[C@@H](CC(C)C)C(=O)N[C@@H](CCCNC(=N)N)C(=O)N[C@@H](CC(N)=O)C(=O)N[C@@H](CC(C)C)C(=O)N[C@H](C(=O)N1CCC[C@H]1C(=O)N[C@@H](CCCNC(=N)N)C(=O)N[C@H](C(=O)N[C@@H](CCC(=O)O)C(=O)N[C@@H](CO)C(=O)O)[C@@H](C)O)C(C)C)[C@@H](C)CC)C(C)C)[C@@H](C)CC` [LL-37, reference compound]: in the data set on S. aureus, the “proportion of PI-positive cells, S. aureus” value came to 46.9%. Further, in the data set on BEAS-2B cells, the “proportion of PI-positive cells, BEAS-2B” value was 31.2%. For the same compound, the “GM to G−” value in data set [1] was determined as 12.49. In addition, the “proportion of PI-positive cells, E. coli” value in the data set with E. coli is on record as 78.9%. Besides, in data set [2], the “Rt” value is on record as 11.125 min. The “MIC (GM)” value with five bacterial strains stood at 28.72. Further, in [3], the Others was 0%, the Turn is reported as 0%, the α-Helix was determined as 100% and the β-Antiparallel came out at 0%. For the same compound, the β-Parallel in [3] came out at 0%. For the same compound, in data set [4], the “GM to G+” value amounted to 100.
As for LKRVWKRVFKLLKRYWRQLKKPVR-NH2 [SAAP-148], in data set [5], the “TI (MHC/MIC)” value is on record as 0.11. Further, in [6], the NO inhibition ability entry is “comparable efficacy to LL-37”. For the same compound, in data set [1], the “GM to G−” value stood at 4.96. The “Rt” value in data set [2] stood at 12.416 min. In addition, the “MIC (GM)” value against five bacterial strains worked out at 7.18. In addition, the “MIC K. pneumoniae” value in [7] was found to be 6.25 µM. In data set [3], this compound returned an Others of 0%, a Turn of 0%, a α-Helix of 93.5% and a β-Antiparallel of 6.5%. The compound also had a β-Parallel in [3] of 0%. Also, the “GM to G+” value in [4] amounted to 12.51. Further, in data set [8], the “MIC S. epidermidis” value is 3.13 µM. In addition, the “MIC E. coli” value in data set [9] came to 6.25 µM. In addition, the “MIC S. aureus” value in [10] amounted to 50.00 µM. The “MIC P. aeruginosa” value in data set [11] came to 3.13 µM.
